Here are results for one compound from US20190167676A1, “METHODS FOR IMPROVING RESISTANCE TO SKELETAL MUSCLE FATIGUE” (Cytokinetics, Inc., priority 2012, published 2019).

Each structure is given as a SMILES string.

Data set [1] has as its system healthy rats. Put plainly: Treadmill running assay. It counts as in vivo, rat. How it is done:
Male Sprague Dawley rats (Charles River), 10-12 weeks old, 250-400 g. Rats were acclimated for a minimum of 2 days and weight was measured weekly. The endurance capacity of rats was assessed using a progressive exercise test as previously described (A. Aaker et al. J Cardiovasc Pharmacol28: 353-362, 1996; B. Helwig et al. J Appl Physiol. 2003 June; 94(6):2225-36). After familiarization with the treadmill apparatus, rats were run at a treadmill speed of 30 meters per minute (m/min) with a 5% incline. Every 15 minutes, the treadmill speed was increased by 5 meters per minute and the rats continued to exercise until they reached the point of fatigue and were unable to continue exercising (FIG. 1A). Exercise time was measured in minutes while exercise distance was recorded in meters. Compound A was administered via oral gavage 2 hours prior to assessment. Each dose was formulated as a suspension containing 1% hydroxypropyl methylcellulose (HPMC), 0.2% Tween 80, and micronized Compound A, and dose volume was 5 ml/kg. Vehicle (0.2% Tween 80, 1% HPMC and water) was administered similarly.

The test system of the next data set is rat EDL muscle. Nature of the data set: Fatigue in rat EDL muscle in situ. It counts as in vivo. From the text:
Rats were placed under anesthesia using isoflurane and the skin around the experimental leg was removed. The distal end of the EDL muscle and its associated tendon were then isolated. The rat was then placed on the platform of an Aurora in-situ muscle analysis rig (806C), maintained at body temperature via a circulating water system. The knee was immobilized in a clamp between two sharpened screws and the distal tendon cut and tied to the arm of a force transducer (Aurora Scientific, Ontario, Canada) using a silk suture. The muscle was stimulated directly via the peroneal nerve. For isolation of the nerve, a 1 cm incision was made at the upper thigh and the overlying gastrocnemius muscle was cut to expose an approximate 5 mm stretch of the peroneal nerve. […] Muscle contractile properties were assessed by applying an electrical current to the nerve and recording the force generated by the muscle via a servomotor. […]
With the rat in situ EDL muscle preparation described in Example 3, a fatiguing protocol was utilized where muscle was stimulated for 600 seconds. […] To elicit muscle fatigue, the EDL muscle was stimulated with 350 msec electrical trains every 3 seconds for ten minutes at a frequency producing an initial force equal to 50% of maximal (FMax50) as determined by the force-frequency relationship for each animal.

The target of another data set is fast skeletal troponin (Homo sapiens, UniProt P02585). The settings on record: isothermal titration calorimetry; cited from earlier work. On the technique in general: ITC needs no label: the signal is the heat of the interaction.
Data set [2] is described as follows: Plasma concentrations, Phase II study. In kind it is in vivo, human.
The target in data set [3] is T1, myofibrils from cardiac muscle (Homo sapiens, UniProt P63316).
T1 construct: from tissue; host or cells: cardiac muscle myofibrils
The settings on record: cited from earlier work.

In data set [4] the test system is healthy rats. Put plainly: Fatigue-rotarod running time test. In kind it is in vivo, rat. The settings on record: between 0.3 mg/kg and 100 mg/kg, FIG. 16. How it is done: The effect of the fast skeletal muscle troponin activator 1-(2-(((trans)-3-fluoro-1-(3-fluoropyridin-2-yl)cyclobutyl)methylamino)pyrimidin-5-yl)-1H-pyrrole-3-carboxamide (Compound C) on muscle fatigue in healthy rats was determined by a rotarod running time test. Compound C was administered to test rats at the doses between 0.3 mg/kg and 100 mg/kg (˜70 nM-28 μM). On the day of the assessment, the animals began by running at an increasing speed from 14-16 RPM over 5 minutes. Rats were then run at a constantly accelerating rate from 12 RPM to 25 RPM over the course of 10 minutes. Time to fall was recorded, with the test being terminated at 600 seconds. The plasma levels were determined at the end of the experiments (not at Cmax). The plasma levels for the indicated doses were determined to be the following: […]

Data set [5] deals with skinned human vastus lateralis fast fibers. The following applies: skinned fast fibers from muscle biopsies; cited from earlier work.
For data set [6], the system named is patients with peripheral artery disease and claudication. Nature of the data set: Safety and tolerability, Phase II study. In kind it is in vivo, human. How it is done:
This study was a double-blind, randomized, placebo-controlled, three-period cross-over, hypothesis generating Phase II study in patients with peripheral artery disease and claudication. […] Secondary objectives included (a) evaluation and characterization of the relationship, if any, between the doses and plasma concentrations of Compound A and its pharmacodynamic effects, and (b) evaluation of the safety and tolerability of Compound A administered as single doses.
Single doses of each of 375 mg Compound A, 750 mg Compound A and placebo were administered in random order with a 6 to 10 day wash out between each dose. […] Assessments include 1) Bilateral Heel Raise Test (as described below) using electrogoniometry at 3 and 6 hours after dosing, and 2) 6-Minute Walk Test at 4 hours after dosing. Results were analyzed using a repeated-measures ANCOVA with treatment, sequence, period, baseline, and patient in the model. In the event of model assumption violations, non-parametric methods were utilized

A further data set deals with T2, fast skeletal myofibrils (Homo sapiens, UniProt P02585).
T2 construct: from tissue; host or cells: fast skeletal muscle myofibrils
The settings on record: cited from earlier work.

[7] abbreviates: 10 mg/kg oral gavage 2 hours prior.
Where [8] appears, read: 20 mg/kg oral gavage 2 hours prior.

fast skeletal troponin, sequence (P02585 whole entry): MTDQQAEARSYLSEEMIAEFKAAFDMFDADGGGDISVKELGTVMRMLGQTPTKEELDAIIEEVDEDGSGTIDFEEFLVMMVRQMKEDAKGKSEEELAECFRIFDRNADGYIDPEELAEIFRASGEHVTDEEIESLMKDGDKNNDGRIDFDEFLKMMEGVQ
fast skeletal troponin, sequence (P48788 whole entry partner): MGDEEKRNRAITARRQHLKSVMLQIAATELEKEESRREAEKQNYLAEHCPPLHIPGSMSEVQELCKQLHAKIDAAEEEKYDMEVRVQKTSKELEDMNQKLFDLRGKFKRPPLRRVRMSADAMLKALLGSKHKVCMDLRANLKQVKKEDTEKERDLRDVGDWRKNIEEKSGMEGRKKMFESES
fast skeletal troponin, sequence (P45378 whole entry partner): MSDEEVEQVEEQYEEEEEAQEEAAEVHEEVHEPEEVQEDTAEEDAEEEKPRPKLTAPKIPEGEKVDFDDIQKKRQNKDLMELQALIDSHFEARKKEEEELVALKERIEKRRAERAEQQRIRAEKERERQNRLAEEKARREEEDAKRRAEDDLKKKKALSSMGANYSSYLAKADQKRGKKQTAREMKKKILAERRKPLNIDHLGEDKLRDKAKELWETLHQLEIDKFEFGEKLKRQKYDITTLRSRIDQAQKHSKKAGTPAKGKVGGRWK
T2 sequence (P02585 whole entry): as the sequence (P02585 whole entry) above
T2 sequence (P48788 whole entry partner): as the sequence (P48788 whole entry partner) above
T2 sequence (P45378 whole entry partner): as the sequence (P45378 whole entry partner) above

For `C#Cc1cnc2nc(O)n(C(CC)CC)c2n1` [Compound A, 6-ethynyl-1-(pentan-3-yl)-1H-imidazo[4,5-b]pyrazin-2-ol], in the data set with healthy rats [1] (setting [7]), the “Distance (m) Mean ± SEM” value stood at 1972 ± 176 m and the “Time (Min) Mean ± SEM” value was found to be 60.7 ± 4.2 min. Also, in the data set on healthy rats [1] (setting [8]), the “Distance (m) Mean ± SEM” value came out at 1943 ± 205 m and the “Time (Min) Mean ± SEM” value stood at 59.4 ± 4.7 min. Further, in the data set on healthy rats [1] (10 and 20 mg/kg), the “increase in treadmill running time over baseline” value came out at 20% and the “increase in treadmill running time over vehicle control” value was found to be 50%. Further, in the data set with rat EDL muscle (1 mg/kg via duodenal cannula, vehicle 30 Hz), the “average stimulation frequency for force production similar to pre-dose” value is given as “approximately 26 Hz”. In addition, the EDL muscle fatigue result in the data set with rat EDL muscle (1 mg/kg, 600 seconds protocol, FIG. 4) is on record as “decreased rat EDL muscle fatigue in situ”. For the same compound, the Kd at fast skeletal troponin is 0.04 µM. Further, the “mean plasma concentrations vs dose” value in data set [2] (375, 500, 750 mg single doses) was “relatively dose proportional increases”. Also, the “mean plasma concentrations over 24-hour observation period” value in data set [2] (even at the 375 mg dose) is “remained within the pharmacologically active range”. For the same compound, the effect in myofibrils result in [3] is on record as “little or no effect”. In the data set on healthy rats [4], the “running time vs vehicle controls” value was “significant increases”. Moreover, in data set [5], the force-calcium relationship result was “dramatically left-shifts”. Besides, the adverse events entry in [6] (750 mg single dose) is “adverse events in two patients”. Moreover, the “adverse events vs dose” value in data set [6] (single doses 375-750 mg) is “Dose related adverse events, particularly dizziness and others related to walking”. Further, the “myosin ATPase relationship to Ca2+ concentration” value on fast skeletal myofibrils is “leftward-shift”.

In general, Kd refers to the concentration at which binding is half-saturated.
